# Laboratory results: patent US20240182513A1, “SEPARATION OF METAL IONS FROM A SAMPLE USING GLYCOLIPIDS” (ARIZONA BOARD OF REGENTS ON BEHALF OF THE UNIVERSITY OF …, priority 2021, published 2024)
# Assay: Ion flotation of uranium from Monument Valley groundwater with rhamnolipid collectors
# Text: Groundwater Collection and Analysis: The Monument Valley site is in Cane Valley, AZ, which is in northeastern Arizona. Groundwater was collected from monitoring well 662, which is down gradient of the source zone within the boundaries of the uranium groundwater plume. Samples were collected using dedicated bladder pumps and a QED Micropurge Controller. Groundwater was collected into a 50 L LDPE carboy (Thermo Scientific Nalgene) after the groundwater's pH and dissolved oxygen levels from the pump stabilized. The solution was stored as received, on the lab bench at ambient temperature until use.
# For cation and anion analysis, groundwater was filtered ([…]) then diluted with 2% trace metals grade nitric acid (Fisher Scientific, Waltham, MA) in metal-free polypropylene 15 mL centrifuge tubes (VWR, Radnor, PA). Cations were analyzed using an Elan DRC-II inductively coupled plasma mass spectrometer (ICP-MS). Anions (F^−1, Cl^−1, Br^−1, NO2^−1, NO3^−1, […], and SO4^−2) were analyzed by using a Thermo Scientific Dionex ICS-6000 high-performance ion chromatography system. Data generated in this geochemical analysis were used to model uranium speciation using Visual MINTEQ 3.1. Only major solution constituents—those greater than 10 μg L^−1 for metals or 5 μmol L^−1 for anions—were included in the experiment, and carbonates were excluded because they are stripped from solution when nitrogen is sparged in the flotation process.
# Chemicals: Both biosynthetic and synthetic monorhamnolipid collectors were tested for flotation efficiency. Biosynthetic monorhamnolipid tail lengths ‘m’ and ‘n’ range from 4 to 12 due to natural congener variation. Synthetic monorhamnolipids (Rha-C10-C10, Rha-C12-C12, or Rha-C14-C14) were synthesized with equal length tails where ‘m’=‘n’=6-14. The production and purification of biosynthetic monorhamnolipids (bio-mRL) from Pseudomonas aeruginosa ATCC 9027 has been previously described by Hogan et al., J. Hazard. Mater. 2017, 340, pp. 171-178. This organism exclusively produces monorhamnolipids—rhamnolipids with a single rhamnose sugar in the hydrophilic moiety of the molecule—as a congener mixture with varying hydrophobic tail lengths, in which the rhamnosyl-β-hydroxydecanoyl-β-hydroxydecanoate (C10-C10) dominates at 75-85 wt %. A molecular weight of 504 g mol^−1 (based on the C10-C10 structure) was used to estimate the bio-mRL concentration. Synthetic monorhamnolipids with decyl (Rha-C10-C10), dodecyl (Rha-C12-C12), and tetradecyl (Rha-C14-C14) hydrophobic moieties were prepared for comparative experiment. The molecular weights of the synthetic monorhamnolipids are 504.7, 560.8, and 616.9, respectively. All solutions were made using nanopure water (≥18 MΩ-cm). pH was adjusted with HNO3 and NaOH. […]
smiles,measurement,setting,value
"CCCCCCCCCC(CC(=O)O)OC(=O)CC(CCCCCCCCC)OC1O[C@@H](C)[C@H](O)[C@@H](O)[C@H]1O (stereo partly drawn) [Rha C12C12, rhamnosyl-β-hydroxydodecanoyl-62-hydroxydodecanoate]",uranium removal,native pH 8,did not collect metals
same,uranium removal percentage,pH 6.5,6.6%
same,uranium removal,pH 7,No significant amount of uranium was removed
